# From PubChem BioAssay AID1963847 (Molecular Pharmacology Branch, DTP, NCI, 2024)
# Test system: 415267-285-R-J2-PDC complex spheroid viability
# Assay: Anticancer human tumor 415267-285-R-J2-PDC patient-derived breast carcinoma cell line growth inhibition [POLQ]
# Details: for IC50: curve of first compound; for viability, T/C: stronger effect = lower value
# Method: Multicellular complex tumor spheroid response to Polymerase (POL) inhibitors (novobiocin, ART-558, RP6685) in combination with a variety of drugs and investigational agents in selected tumor cell lines
# The POL inhibitors (novobiocin, ART-558, and RP6685) were evaluated both individually and in combination with standard of care and investigational anticancer small molecules within a complex spheroid model of solid tumors. . Complex spheroids include a stromal component modeled by human endothelial cells (HUVEC) and fibroblasts modeled by human mesenchymal stem cells (MSCs). The concentration ranges selected for each drug and investigational agent were based upon clinically achievable concentrations if the clinical Cmax of the agent was known.
# Compounds. The drugs and investigational agents: novobiocin (NSC847541), ART-558 (NSC835418), RP-6685 (NSC848927), peposertib (NSC802822), ceralasertib (NSC780249), elimusertib (NSC800525), camonsertib (NSC841442), AZD-1390 (NSC803789), olaparib (NSC753686), talazoparib (NSC767125), rucaparib (NSC756644), sotorasib (NSC818433), MRTX-1133 (NSC836407), SN-38 (NSC673596), topotecan (NSC609699), epotoside (NSC141540), doxorubicin (NSC123127), gemcitabine (NSC613327), 5-fluorouracil (NSC19893), paclitaxel (NSC125973), vemurafenib (NSC761431), MSA-2 (NSC828583), SN-011 (NSC837082), adavosertib (NSC754352), prexasertib (NSC758257), carboplatin (NSC241240) and oxaliplatin (NSC266046), were obtained from the National Cancer Institute (NCI) Developmental Therapeutics Program Chemical Repository (21). The FDA-approved anticancer drug set is available from the Developmental Therapeutics Program at https://dtp.cancer.gov/organization/dscb/obtaining/. […] The stock solutions were prepared in dimethyl sulfoxide (DMSO, Sigma-Aldrich, St. Louis, MO, cat. D2650), except for the platinum compounds which were prepared in saline (Quality Biological, Gaithersburg, MD, cat. 114-055-101), at 800-fold the tested concentration and stored at -70 degrees C prior to their use. All drugs and investigational agents were tested over a range starting from a high concentration at or near the clinical Cmax and decreasing in half-log increments. If the clinical Cmax for an agent had not been determined, the highest concentration tested was 10 microM, except for SN-38, which was tested at a high concentration of 1 microM.
# Cell Culture. All cells were maintained in an incubator at 37 degrees C and 5% CO2 with 95% humidity. The PDC lines were cultured according to standard operating procedures established by the NCI PDMR (https://pdmr.cancer.gov). Table 3 of the manuscript, lists the cell lines along with the number of the three cell types plated to form the mct-spheroids and media for tumor cell growth. After thawing, all PDC lines, except 997537-175-T-J1-PDC and 415267-285-R-J2-PDC, were cultured in Matrigel-coated flasks prepared with a working solution of 1X Ham's F-12 nutrient mix, without supplementation (Thermo Fisher Scientific, cat. 11765054), 100 U/mL penicillin-streptomycin (Thermo Fisher Scientific, cat. 15140122), and 2.5% Matrigel (Corning Inc., Corning, NY, cat. 354248) for the first three passages. The two PDC lines 997537-175-T-J1-PDC and 415267-285-R-J2-PDC were cultured on uncoated flasks. The 857933-349-R-J2-PDC line was cultured in 6C/Colon 1B media containing advanced DMEM/F-12 (Thermo Fisher Scientific, cat. 12634028), 10 mM HEPES (Thermo Fisher Scientific, cat. 15630080), 1X GlutaMAX supplement (Thermo Fisher Scientific, cat. 35050061), 0.1 mg/mL primocin (InvivoGen, San Diego, CA, cat. ant-pm-2), 10% defined fetal bovine serum, heat inactivated (HyClone Laboratories Inc., Logan, UT, cat. SH30070.03HI), 50% L-WRN conditioned media (ATCC, cat. CRL-3276), 1.25 mM N-Acetyl-L-cysteine (Sigma-Aldrich, cat. A9165), 10 mM nicotinamide (Sigma-Aldrich, cat. N0636), 1X B-27 supplement (Thermo Fisher Scientific, cat. 17504044), 1X N-2 supplement (Thermo Fisher Scientific, cat. […]
# [1] = second compound 0.0316 µM, first compound 0.0316 µM
# [2] = second compound 0.0316 µM, first compound 0.1 µM
# [3] = second compound 0.0316 µM, first compound 0.316 µM
# [4] = second compound 0.0316 µM, first compound 1 µM
# [5] = second compound 0.0316 µM, first compound 3.16 µM
# [6] = second compound 0.0316 µM, first compound 10 µM
# [7] = second compound 0.1 µM, first compound 0.0316 µM
# [8] = second compound 0.1 µM, first compound 0.1 µM
# [9] = second compound 0.1 µM, first compound 0.316 µM
# [10] = second compound 0.1 µM, first compound 1 µM
# [11] = second compound 0.1 µM, first compound 3.16 µM
# [12] = second compound 0.1 µM, first compound 10 µM
# [13] = second compound 0.316 µM, first compound 0.0316 µM
# [14] = second compound 0.316 µM, first compound 0.1 µM
# [15] = second compound 0.316 µM, first compound 0.316 µM
# [16] = second compound 0.316 µM, first compound 1 µM
# [17] = second compound 0.316 µM, first compound 3.16 µM
# [18] = second compound 0.316 µM, first compound 10 µM
# [19] = second compound 1 µM, first compound 0.0316 µM
# [20] = second compound 1 µM, first compound 0.1 µM
# [21] = second compound 1 µM, first compound 0.316 µM
# [22] = second compound 1 µM, first compound 1 µM
# [23] = second compound 1 µM, first compound 3.16 µM
# [24] = second compound 1 µM, first compound 10 µM
# [25] = second compound 3.16 µM, first compound 0.0316 µM
# [26] = second compound 3.16 µM, first compound 0.1 µM
# [27] = second compound 3.16 µM, first compound 0.316 µM
# [28] = second compound 3.16 µM, first compound 1 µM
# [29] = second compound 3.16 µM, first compound 3.16 µM
# [30] = second compound 3.16 µM, first compound 10 µM
# [31] = second compound 10 µM, first compound 0.0316 µM
# [32] = second compound 10 µM, first compound 0.1 µM
# [33] = second compound 10 µM, first compound 0.316 µM
# [34] = second compound 10 µM, first compound 1 µM
# [35] = second compound 10 µM, first compound 3.16 µM
# [36] = second compound 10 µM, first compound 10 µM
# 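Note: spheroids exposed to compounds for one week before readout.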
# 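Throughout, for viability, T/C: luminescence used as stand-in measure of viable cells; 100% = DMSO vehicle control viability.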
smiles,measurement,setting,value
COc1cc(C2c3cc4c(cc3C(OC3OC5COC(C)OC5C(O)C3O)C3COC(=O)C23)OCO4)cc(OC)c1O (centres undefined) + Cc1cccc(N(C)C(=O)C2C(O)CCN2c2nc(C)cc(C(F)(F)F)c2C#N)c1,IC50,second compound 0.0316 µM,0.136 µM
same,IC50,second compound 0.1 µM,0.126 µM
same,IC50,second compound 0.316 µM,0.107 µM
same,IC50,second compound 1 µM,0.125 µM
same,IC50,second compound 3.16 µM,0.103 µM
same,IC50,second compound 10 µM,0.0899 µM
same,"viability, T/C",[1],96%
same,"viability, T/C",[2],64.5%
same,"viability, T/C",[3],10.3%
same,"viability, T/C",[4],6.03%
same,"viability, T/C",[5],5.96%
same,"viability, T/C",[6],6.13%
same,"viability, T/C",[7],83.3%
same,"viability, T/C",[8],58.7%
same,"viability, T/C",[9],15%
same,"viability, T/C",[10],5.93%
same,"viability, T/C",[11],6.54%
same,"viability, T/C",[12],7.34%
same,"viability, T/C",[13],96.4%
same,"viability, T/C",[14],52.3%
same,"viability, T/C",[15],14.2%
same,"viability, T/C",[16],7.66%
same,"viability, T/C",[17],5.87%
same,"viability, T/C",[18],5.74%
same,"viability, T/C",[19],91.3%
same,"viability, T/C",[20],58.8%
same,"viability, T/C",[21],13.1%
same,"viability, T/C",[22],6.58%
same,"viability, T/C",[23],4.68%
same,"viability, T/C",[24],6.56%
same,"viability, T/C",[25],93.7%
same,"viability, T/C",[26],50.9%
same,"viability, T/C",[27],10.1%
same,"viability, T/C",[28],7.37%
same,"viability, T/C",[29],5.2%
same,"viability, T/C",[30],6.34%
same,"viability, T/C",[31],79.7%
same,"viability, T/C",[32],47%
same,"viability, T/C",[33],11%
same,"viability, T/C",[34],7.78%
same,"viability, T/C",[35],5.72%
same,"viability, T/C",[36],5.96%
O=c1[nH]cc(F)c(=O)[nH]1 + Cc1cccc(N(C)C(=O)C2C(O)CCN2c2nc(C)cc(C(F)(F)F)c2C#N)c1,IC50,second compound 0.0316 µM,0.222 µM
same,IC50,second compound 0.1 µM,0.207 µM
same,IC50,second compound 0.316 µM,0.203 µM
same,IC50,second compound 1 µM,0.181 µM
same,IC50,second compound 3.16 µM,0.192 µM
same,IC50,second compound 10 µM,0.179 µM
same,"viability, T/C",[1],87.3%
same,"viability, T/C",[2],83.9%
same,"viability, T/C",[3],35.1%
same,"viability, T/C",[4],30.1%
same,"viability, T/C",[5],27.6%
same,"viability, T/C",[6],43%
same,"viability, T/C",[7],97.1%
same,"viability, T/C",[8],72.6%
same,"viability, T/C",[9],37.3%
same,"viability, T/C",[10],27.2%
same,"viability, T/C",[11],28%
same,"viability, T/C",[12],39%
same,"viability, T/C",[13],98.8%
same,"viability, T/C",[14],72%
same,"viability, T/C",[15],36.9%
same,"viability, T/C",[16],26.6%
same,"viability, T/C",[17],26.8%
same,"viability, T/C",[18],36.1%
same,"viability, T/C",[19],100%
same,"viability, T/C",[20],64.8%
same,"viability, T/C",[21],36.7%
same,"viability, T/C",[22],28.5%
same,"viability, T/C",[23],25.6%
same,"viability, T/C",[24],35.4%
same,"viability, T/C",[25],95.8%
same,"viability, T/C",[26],67.9%
same,"viability, T/C",[27],36.6%
same,"viability, T/C",[28],28.8%
same,"viability, T/C",[29],33.5%
same,"viability, T/C",[30],33.6%
same,"viability, T/C",[31],92.1%
same,"viability, T/C",[32],64.5%
same,"viability, T/C",[33],36.3%
same,"viability, T/C",[34],26.8%
same,"viability, T/C",[35],24.7%
same,"viability, T/C",[36],29.4%
